In brackets after ≈: the same amount, converted by molar mass. Activity calls are given as the source filed them. The rule behind the calls is not given here.
How the values were obtained:
[1] = test system: RAW264.7; test: Antiinflammatory activity in mouse RAW264.7 cells assessed as reduction in LPS-induced iNOS gene expression at 4 uM incubated for 3 hrs by qRT-PCR analysis; type: functional, cell-based
[2] = test system: RAW264.7; test: Antiinflammatory activity in mouse RAW264.7 cells assessed as reduction in LPS-induced TNFalpha gene expression at 8 uM incubated for 6 hrs by qRT-PCR analysis; type: functional, cell-based
[3] = test system: Pseudomonas aeruginosa; type: functional; conditions: CCARM 2095, 72 h
[4] = test system: Staphylococcus aureus; test: Antibacterial activity against methicillin-resistant Staphylococcus aureus CCARM 3089 assessed as reduction in bacterial growth at 8 uM incubated for 72 hrs in presence of ciprofloxacin by spectrophotometry; type: functional; conditions: CCARM 3089, 72 h
[5] = test system: Pseudomonas aeruginosa; test: Fractional inhibitory concentration, ratio of MIC of compound in presence of […] uM oxacillin to MIC of oxacillin for antibacterial activity against multidrug-resistant Pseudomonas aeruginosa CCARM 2095; type: functional
[6] = test system: Staphylococcus aureus; test: Fractional inhibitory concentration, ratio of MIC of compound in presence of […] uM oxacillin to MIC of oxacillin for antibacterial activity against methicillin-resistant Staphylococcus aureus CCARM 3089; type: functional
[7] = test system: Pseudomonas aeruginosa; test: Potentiation of ciprofloxacin-induced antibacterial activity against mutidrug-resistant Pseudomonas aeruginosa CCARM 2095 assessed as reduction in ciprofloxacin MIC at 1/16th MIC incubated for 72 hrs by spectrophotometry; type: functional
[8] = test system: Pseudomonas aeruginosa; test: Potentiation of oxacillin-induced antibacterial activity against mutidrug-resistant Pseudomonas aeruginosa CCARM 2095 assessed as reduction in oxacillin MIC at 1/16th MIC incubated for 72 hrs by spectrophotometry; type: functional
[9] = test system: Salmonella typhimurium; test: Antibacterial activity against Salmonella typhimurium KCTC 1926 assessed as reduction in bacterial growth incubated for 18 hrs by spectrophotometry based microtiter broth dilution method; type: functional, Salmonella enterica subsp. enterica serovar Typhimurium; conditions: Salmonella enterica, KCTC 1926, 18 h
[10] = test system: Staphylococcus aureus; test: Antibacterial activity against Staphylococcus aureus KCTC 1621 assessed as reduction in bacterial growth incubated for 18 hrs by spectrophotometry based microtiter broth dilution method; type: functional; conditions: KCTC 1621, 18 h
[11] = test system: RAW264.7; test: Cytotoxicity against mouse RAW264.7 cells assessed as reduction in cell viability at upto 16 uM incubated for 48 hrs by MTT assay; type: cell-based; conditions: raw264.7, 48 h
[12] = test system: RAW264.7; test: Antiinflammatory activity in mouse RAW264.7 cells assessed as reduction in LPS-induced NO production at 4 uM incubated for 24 hrs by Griess reagent based assay relative to control; type: functional; conditions: RAW264.7, 24 h
[13] = test system: RAW264.7; test: Antiinflammatory activity in mouse RAW264.7 cells assessed as reduction in LPS-induced TNFalpha release at 8 uM preincubated for 1 hr followed by LPS-challenge and measured after 6 hrs by ELISA relative to control; type: functional
[14] = test system: Lipopolysaccharide (LPS); test: Displacement of BODIPY-TR-cadaverine from Escherichia coli O111:B4 LPS by fluorescence spectrophotometry
[15] = test system: Staphylococcus aureus; test: Potency index, ratio of MIC of LL-37 to MIC of compound for antibacterial activity against methicillin-resistant Staphylococcus aureus CCARM 3089 assessed as reduction in bacterial growth incubated for 18 hrs by spectrophotometry based microtiter broth dilution method; type: functional
[16] = test system: Staphylococcus aureus; test: Potency index, ratio of MIC of LL-37 to MIC of compound for antibacterial activity against methicillin-resistant Staphylococcus aureus CCARM 3095 assessed as reduction in bacterial growth incubated for 18 hrs by spectrophotometry based microtiter broth dilution method; type: functional
[17] = test system: Pseudomonas aeruginosa; test: Potency index, ratio of MIC of LL-37 to MIC of compound for antibacterial activity against multidrug-resistant Pseudomonas aeruginosa CCARM 2095 assessed as reduction in bacterial growth incubated for 18 hrs by spectrophotometry based microtiter broth dilution method; type: functional
[18] = test system: Pseudomonas aeruginosa; test: Potency index, ratio of MIC of LL-37 to MIC of compound for antibacterial activity against multidrug-resistant Pseudomonas aeruginosa CCARM 2109 assessed as reduction in bacterial growth incubated for 18 hrs by spectrophotometry based microtiter broth dilution method; type: functional
[19] = test system: Enterococcus faecium; test: Potency index, ratio of MIC of LL-37 to MIC of compound for antibacterial activity against vancomycin-resistant Enterococcus faecium ATCC 51559 assessed as reduction in bacterial growth incubated for 18 hrs by spectrophotometry based microtiter broth dilution method; type: functional
[20] = test system: Staphylococcus aureus; test: Potency index, ratio of MIC of melittin to MIC of compound for antibacterial activity against methicillin-resistant Staphylococcus aureus CCARM 3090 assessed as reduction in bacterial growth incubated for 18 hrs by spectrophotometry based microtiter broth dilution method; type: functional
[21] = test system: Staphylococcus aureus; test: Potency index, ratio of MIC of melittin to MIC of compound for antibacterial activity against methicillin-resistant Staphylococcus aureus CCARM 3095 assessed as reduction in bacterial growth incubated for 18 hrs by spectrophotometry based microtiter broth dilution method; type: functional
[22] = test system: Pseudomonas aeruginosa; test: Potency index, ratio of MIC of melittin to MIC of compound for antibacterial activity against multidrug-resistant Pseudomonas aeruginosa CCARM 2095 assessed as reduction in bacterial growth incubated for 18 hrs by spectrophotometry based microtiter broth dilution method; type: functional
[23] = test system: Enterococcus faecium; test: Potency index, ratio of MIC of melittin to MIC of compound for antibacterial activity against vancomycin-resistant Enterococcus faecium ATCC 51559 assessed as reduction in bacterial growth incubated for 18 hrs by spectrophotometry based microtiter broth dilution method; type: functional
[24] = test system: Escherichia coli; test: Antibacterial activity against Escherichia coli KCTC 1682 assessed as reduction in bacterial growth incubated for 18 hrs in presence of 4.5 mM KCl by spectrophotometry based microtiter broth dilution method; type: functional; conditions: KCTC 1682, 18 h
[25] = test system: Escherichia coli; test: Antibacterial activity against Escherichia coli KCTC 1682 assessed as reduction in bacterial growth incubated for 18 hrs in presence of 2.5 mM CaCl2 by spectrophotometry based microtiter broth dilution method; type: functional; conditions: KCTC 1682, 18 h
[26] = test system: Escherichia coli; test: Antibacterial activity against Escherichia coli KCTC 1682 assessed as reduction in bacterial growth incubated for 18 hrs in presence of 20 % human serum by spectrophotometry based microtiter broth dilution method; type: functional; conditions: KCTC 1682, 18 h
[27] = test system: Staphylococcus aureus; test: Antibacterial activity against Staphylococcus aureus KCTC 1621 assessed as reduction in bacterial growth incubated for 18 hrs in presence of 150 mM NaCl by spectrophotometry based microtiter broth dilution method; type: functional; conditions: KCTC 1621, 18 h
[28] = test system: Staphylococcus aureus; test: Antibacterial activity against Staphylococcus aureus KCTC 1621 assessed as reduction in bacterial growth incubated for 18 hrs in presence of 6 uM NH4Cl by spectrophotometry based microtiter broth dilution method; type: functional; conditions: KCTC 1621, 18 h
[29] = test system: Staphylococcus aureus; test: Antibacterial activity against Staphylococcus aureus KCTC 1621 assessed as reduction in bacterial growth incubated for 18 hrs in presence of 1 mM MgCl2 by spectrophotometry based microtiter broth dilution method; type: functional; conditions: KCTC 1621, 18 h
[30] = test system: Staphylococcus aureus; test: Antibacterial activity against methicillin-resistant Staphylococcus aureus CCARM 3089 assessed as reduction in bacterial growth at 4 uM incubated for 72 hrs in presence of chloramphenicol by spectrophotometry; type: functional; conditions: CCARM 3089, 72 h
[31] = test system: Staphylococcus aureus; test: Antibacterial activity against methicillin-resistant Staphylococcus aureus CCARM 3089 assessed as reduction in bacterial growth at 4 uM incubated for 72 hrs in presence of ciprofloxacin by spectrophotometry; type: functional; conditions: CCARM 3089, 72 h
[32] = test system: Staphylococcus aureus; test: Antibacterial activity against methicillin-resistant Staphylococcus aureus CCARM 3089 assessed as reduction in bacterial growth at 4 uM incubated for 72 hrs in presence of oxacillin by spectrophotometry; type: functional; conditions: CCARM 3089, 72 h

CC[C@H](C)[C@H](NC(=O)[C@H](CCCCN)NC(=O)[C@H](CCC(=O)O)NC(=O)[C@H](CCCCN)NC(=O)[C@H](CO)NC(=O)[C@H](CCCCN)NC(=O)[C@H](CCCNC(=N)N)NC(=O)[C@H](Cc1ccccc1)NC(=O)[C@H](Cc1ccccc1)NC(=O)[C@H](CC(=O)O)NC(=O)CNC(=O)[C@H](CC(C)C)NC(=O)[C@@H](N)CC(C)C)C(=O)NCC(=O)N[C@@H](CCCCN)C(=O)N[C@@H](CCC(=O)O)C(=O)N[C@@H](Cc1ccccc1)C(=O)N[C@@H](CCCCN)C(=O)N[C@@H](CCCNC(=N)N)C(=O)N[C@H](C(=O)N[C@H](C(=O)N[C@@H](CCC(N)=O)C(=O)N[C@@H](CCCNC(=N)N)C(=O)N[C@H](C(=O)N[C@@H](CCCCN)C(=O)N[C@@H](CC(=O)O)C(=O)N[C@@H](Cc1ccccc1)C(=O)N[C@@H](CC(C)C)C(=O)N[C@@H](CCCNC(=N)N)C(=O)N[C@@H](CC(N)=O)C(=O)N[C@@H](CC(C)C)C(=O)N[C@H](C(=O)N1CCC[C@H]1C(=O)N[C@@H](CCCNC(=N)N)C(=O)N[C@H](C(=O)N[C@@H](CCC(=O)O)C(=O)N[C@@H](CO)C(=O)O)[C@@H](C)O)C(C)C)[C@@H](C)CC)C(C)C)[C@@H](C)CC [CATHELICIDIN]
inhibition [1]: Active
inhibition [2]: Active
MIC [3]: 256 µM (≈ 1150 µg/mL)
MIC [4]: 8 µM
FIC [5]: 1
FIC [6]: 0.5
fold change (FC) [7]: 2 - 4
fold change (FC) [8]: 2 - 4

H-LVIRWVRAGYKLYRAIKKK-NH2
MIC [9]: 2 µM
MIC [10]: 2 µM
Activity [11]: Non-Toxic
inhibition at 4 µM [12]: 94.2%
inhibition at 8 µM [13]: 75.2%
inhibition [14]: Dose-dependent effect
Ratio [15]: 2 - 8
Ratio [16]: 2 - 8
Ratio [17]: 2 - 8
Ratio [18]: 2 - 8
Ratio [19]: 2 - 8
Ratio [20]: 2 - 8
Ratio [21]: 2 - 8
Ratio [22]: 2 - 8
Ratio [23]: 2 - 8
MIC [24]: 4 µM
MIC [25]: 4 µM
MIC [26]: 8 µM
MIC [27]: 2 µM
MIC [28]: 2 µM
MIC [29]: 4 µM
MIC [3]: 32 µM
MIC [30]: 0.5 µM
MIC [31]: 0.5 µM
MIC [32]: 1 µM
FIC [5]: 0.25
FIC [6]: 0.25
fold change (FC) [7]: 4 - 16
fold change (FC) [8]: 4 - 16

— ChEMBL document CHEMBL4406836, “The design of a cell-selective fowlicidin-1-derived peptide with both antimicrobial and anti-inflammatory activities” (Eur J Med Chem, 2019)
